One block for each compound: values may come before it.
What was measured:
[1] = Determination of solubility at 25° C.; assay type: physicochemical; details: for solubility: thermodynamic from solid; for Solid: line after Water under Solubility; for Aqueous solubility (in words): summary of Table 8
Experimental: Excess solids were equilibrated in each solvent for over 24 hours at 25° C.±0.1. Concentration in aqueous supernatant was measured by UV and HPLC and concentrations in organic solvents by gravimetry.

[2] = pH of 1% solution or suspension; assay type: physicochemical; details: In water
[3] = Intrinsic dissolution rate; assay type: physicochemical; details: 37° C.
Experimental: The intrinsic dissolution rate measurements were carried out in 0.5 cm^2 VanKel die assemblies and a pellet pressure of 1 ton. The dissolution was measured using a Cary 50 spectrophotometer with a stirring rate of 200 rpm. The solution medium was held at 37° C. and measurements were made at 276 nm.

[4] = Thermogravimetry / loss on drying; assay type: physicochemical; details: for Loss on drying by TG: As is; for Thermogravimetry (weight loss in %): Heating rate 20 K/min
[5] = Stability: degradation products (DP) and appearance (color) under stress conditions; assay type: physicochemical; parameters: key to CL: A: No change of color; B: Slight discoloration; C: Medium discoloration; D: Strong discoloration; ↓: Suspension; *: Clear solution after stress test; —: no change; x: test not performed
Experimental: Column: Symmetry C18 (Waters), 3.5 μm, 3×150 mm
Mobile phase: A=0.1% TFA in water; B=acetonitrile
Gradient: 20 to 100% B in 10 minutes
Column temperature: 40° C.
Stability of the three salts with respect to color and degradation products were assessed under various conditions.

[6] = Polymorphism behavior: crystal modification after 24 hours equilibration; assay type: physicochemical
Experimental: A suspension of 6 mg of drug substance in 300 μl of solvent is prepared. Samples are agitated for ≧24 hour at 22° C.±2° C. The solids are collected and investigated for changes.

[7] = Effect of grinding on morphic properties; assay type: physicochemical
[8] = Hygroscopicity (sorption/desorption); assay type: physicochemical; details: for Hygroscopicity: After 1 day at 80% r.h. / Hygroscopicity: After 1 day at 95% r.h.: 25° C.
Experimental: Sorption/desorption isotherms were measured using VTI vapor sorption device (DVS-1). Measurements were carried out at 25° C.

[9] = Aqueous solubility of salts in deionized water
[10] = Bioavailability study of API and salts of API in dogs; assay type: in vivo, beagle dogs; details: single 100 mg oral dose
Experimental: For comparison, a microemulsion of the free base was also studied. The study was performed with 4 dogs, weighing 9-15 kg each. A crossover design with a washout period of at least 1 week was used. The dogs were given a single oral dose of 100 mg of test compound, administered under fasting conditions.

[11] = 0.1N HCl, 25 °C, simulated gastric fluid, read-out: Solubility (approx. at 25° C.) (HPLC)
[12] = acetonitrile, 25 °C, organic solvent or mixture, read-out: Solubility (approx. at 25° C.)
[13] = aqueous medium at pH 3, 25 °C, pH 3, aqueous buffer, read-out: Solubility (approx. at 25° C.) (HPLC)
[14] = aqueous medium at pH 4.5, 25 °C, pH 4.5, aqueous buffer, read-out: Solubility (approx. at 25° C.) (HPLC)
[15] = methanol, 25 °C, organic solvent or mixture, read-out: Solubility (approx. at 25° C.)
[16] = water, 25 °C, water, read-out: Solubility (approx. at 25° C.) (HPLC)
[17] = 0.1% solutions or suspensions, 1 week 80° C. or 50° C., Methanol
[18] = 0.1% solutions or suspensions, 1 week 80° C. or 50° C., Water
[19] = 1-2 weeks 50° C., tight container, 1% in mixture 1
[20] = 1-2 weeks 50° C., tight container, 1% in mixture 2
[21] = 1-2 weeks 50° C./75% r.h., 1% in mixture 1
[22] = 1-2 weeks 50° C./75% r.h., 1% in mixture 2
[23] = Solid stage, 1 week 80° C., tight container, Bulk (HPLC)
[24] = Solid state, 1 week 80° C./175% r.h, Bulk (HPLC)
[25] = Solid state, 1 week 80° C./, Bulk (HPLC)
[26] = Xenon light (approx. 1200 kLuxh), Bulk (HPLC)
[27] = deionized water, water, thermodynamic from solid
[28] = beagle, dog, plasma, fasting, mean and sd

- solubility [1, 11]: 3700 µg/mL
- solubility [1, 12]: 2100 µg/mL
- solubility [1, 13]: 2.3 µg/mL
- solubility [1, 14]: 3.7 µg/mL
- Solid [1]: No change
- solubility [1, 15]: > 50000 µg/mL
- Measured pH ([1]; solubility sample in 0.1N HCl): 1.4
- solubility [1, 16]: 60 µg/mL
- pH of 1% solution or suspension [2]: 2.2
- Intrinsic dissolution rate ([3]; HCl 0.1N): 0.06 mg min^−1 cm^−2
- Intrinsic dissolution rate ([3]; Water): 0.0036 mg min^−1 cm^−2
- Loss on drying by TG [4]: 2.1%
- Thermogravimetry (weight loss in %) [4]: 2.1%
- CL [5, 17]: A
- DP [5, 17]: 2.5%
- DP ([5]; 0.1% solutions or suspensions, 1 week 80° C. or 50° C., Methanol, listed as esylate): 2.7%
- CL [5, 18]: A↓
- DP [5, 18]: 0.4%
- CL [5, 19]: A
- DP [5, 19]: 0.5%
- CL [5, 20]: A
- DP [5, 20]: 0.6%
- CL [5, 21]: A
- DP [5, 21]: 1.8%
- CL [5, 22]: A
- DP [5, 22]: 0.8%
- CL [5, 23]: A
- DP [5, 23]: 0.5%
- DP [5, 24]: 0.6%
- CL [5, 25]: A
- DP ([5]; Unstressed): 0.5%
- CL [5, 26]: A
- DP [5, 26]: 0.7%
- Crystal modification after 24 hours equilibration (DSC/XRPD/TG) ([6]; 2-propanol): No change
- Crystal modification after 24 hours equilibration (DSC/XRPD/TG) ([6]; Acetone): No change
- Crystal modification after 24 hours equilibration (DSC/XRPD/TG) ([6]; Acetonitrile): No change
- Crystal modification after 24 hours equilibration (DSC/XRPD/TG) ([6]; Ethanol): No change
- Crystal modification after 24 hours equilibration (DSC/XRPD/TG) ([6]; Ethyl acetate): No change
- Crystal modification after 24 hours equilibration (DSC/XRPD/TG) ([6]; Methanol): No change
- Crystal modification after 24 hours equilibration (DSC/XRPD/TG) ([6]; PEG400): No change
- Crystal modification after 24 hours equilibration (DSC/XRPD/TG) ([6]; Water): No change
- Effect of grinding [7]: No change
- Hygroscopicity from moisture sorption profiles (in words) [8]: hygroscopic
- Hygroscopicity: After 1 day at 80% r.h. [8]: 5.3
- Hygroscopicity: After 1 day at 95% r.h. [8]: 14.9
SMILES: CCS(=O)(=O)O.Cn1c(Nc2ccc(C(F)(F)F)cc2)nc2cc(Oc3ccnc(-c4ncc(C(F)(F)F)[nH]4)c3)ccc21 [Esylate, {1-methyl-5-[2-(5-trifluoromethyl-1H-imidazol-2-yl)-pyridin-4-yloxy]-1H-benzoimidazol-2-yl}-(4-trifluoromethyl-phenyl)amine ethanesulfonate]
- Aqueous solubility (in words) [1]: significantly improves aqueous solubility at all pH levels

- solubility [9, 27]: 4 µg/mL
- solubility at 48 h [9, 27]: 774 µg/mL
- pH ([9]; pH of the saturated aqueous solutions): 1.992
- solubility [1, 11]: 5700 µg/mL
- solubility [1, 12]: 4000 µg/mL
- solubility [1, 13]: 0.5 µg/mL
- solubility [1, 14]: 0.1 µg/mL
- Solid [1]: No change
- solubility [1, 15]: > 50000 µg/mL
- Measured pH ([1]; solubility sample at pH 3): 3.6
- Measured pH ([1]; solubility sample in 0.1N HCl): 1.3
- solubility [1, 16]: 70 µg/mL
- pH of 1% solution or suspension [2]: 2.0
- AUC(0-inf) [10, 28]: 54400 ± 14200 ng·h/mL
- Cmax [10, 28]: 1570 ± 530 ng/mL
- half-life [10, 28]: 1280 ± 780 min
- Tmax ([10]; beagle, dog, plasma, fasting, median): 5 h
- Tlag ([10]; fasting, median): 0.13 h
- Absolute F ([10]; relative to an iv dose of 1.25 mg/kg): 23.7 ± 6.2
- Intrinsic dissolution rate ([3]; HCl 0.1N): 0.056 mg min^−1 cm^−2
- Intrinsic dissolution rate ([3]; Water): 0.0024 mg min^−1 cm^−2
- Loss on drying by TG [4]: 1.3%
- Thermogravimetry (weight loss in %) [4]: 1.3%
- CL [5, 17]: A
- DP [5, 17]: 2.7%
- CL [5, 18]: A↓
- DP [5, 18]: 0.5%
- CL [5, 19]: A
- DP [5, 19]: 0.5%
- CL [5, 20]: A
- DP [5, 20]: 0.6%
- CL [5, 21]: A
- DP [5, 21]: 2%
- CL [5, 22]: A
- DP [5, 22]: 1.2%
- CL [5, 23]: A
- DP [5, 23]: 0.5%
- DP [5, 24]: 0.8%
- CL [5, 25]: A
- DP ([5]; Unstressed): 0.5%
- CL [5, 26]: A
- DP [5, 26]: 0.6%
- Crystal modification after 24 hours equilibration (DSC/XRPD/TG) ([6]; 2-propanol): No change
- Crystal modification after 24 hours equilibration (DSC/XRPD/TG) ([6]; Acetone): No change
- Crystal modification after 24 hours equilibration (DSC/XRPD/TG) ([6]; Acetonitrile): No change
- Crystal modification after 24 hours equilibration (DSC/XRPD/TG) ([6]; Ethanol): No change
- Crystal modification after 24 hours equilibration (DSC/XRPD/TG) ([6]; Ethyl acetate): No change
- Crystal modification after 24 hours equilibration (DSC/XRPD/TG) ([6]; Methanol): No change
- Crystal modification after 24 hours equilibration (DSC/XRPD/TG) ([6]; PEG400): No change
- Crystal modification after 24 hours equilibration (DSC/XRPD/TG) ([6]; Water): Change
- Effect of grinding [7]: No change
- Hygroscopicity from moisture sorption profiles (in words) [8]: hygroscopic
- Hygroscopicity: After 1 day at 80% r.h. [8]: 4.0
- Hygroscopicity: After 1 day at 95% r.h. [8]: 13.0
SMILES: CS(=O)(=O)O.Cn1c(Nc2ccc(C(F)(F)F)cc2)nc2cc(Oc3ccnc(-c4ncc(C(F)(F)F)[nH]4)c3)ccc21 [Mesylate, {1-methyl-5-[2-(5-trifluoromethyl-1H-imidazol-2-yl)-pyridin-4-yloxy]-1H-benzoimidazol-2-yl}-(4-trifluoromethyl-phenyl)amine methanesulfonate]
- Aqueous solubility (in words) [1]: significantly improves aqueous solubility at all pH levels

Source: US8202998B2, “Salts of benzimidazolyl pyridyl ethers and formulations thereof” (Novartis AG, priority 2006, dated 2012)
